From patent US20200352913A1, “NEW METHOD FOR TREATING DENGUE VIRUS INFECTION” (INSERM (INSTITUT NATIONAL DE LA SANTÉ ET DE LA RECHERCHE …, priority 2017, published 2020)
Entries after “also recorded” stand apart in the source; their conditions may differ.

How the values were obtained:
DENV2_16681 [1] = conditions: Diamond et al., 2002; targets de novo purine biosynthesis pathway; cited from earlier work
[2] = tested on: DENV1, DENV2_16681, DENV2_JAM, DENV3_THAI; experiment: Infection of HeLa cells by DENV serotypes, flow cytometry (FIG. 2D); assay type: cell-based, Dengue virus; conditions: 24 h pre-incubation, continuous drug, 24h post infection
Experimental: (§1) FIG. 2. […] (A) HeLa cells were pre-incubated for 24h with increased concentration of NGI-1, or for 3h with MPA prior infection with DENV2_16681 (MOI 5). MPA, Mycophenolic acid. (B) Replication kinetics of DENV2 in HeLa replicon cells challenged with NGI-1 (2 μM) or MPA (10 μM) along the experiment duration. (C) Supernatants from HEK-293T cells transfected with FLAG-NS plasmids, were subjected to ELISA to quantify secreted NS1. (D) HeLa cells were incubated for 24 hours with NGI-1 and challenged in continuous presence of the drug with DENV1 (MOI 1), DENV2_16681 (MOI 5), DENV2_JAM (MOI 5), DENV3_THAI (MOI 5), WNV (MOI 1), ZIKV (MOI 1), CHIKV (MOI 5) or HSV (MOI 0.3). (E) Similarly treated primary skin fibroblast and monocyte derived dendritic cells (MDDC) were challenged with DENV2_16681 (MOI 5) and ZIKV_HD78788 (MOI 2). (D and E) The levels of infected cells were assessed 24h post infection by flow cytometry using respective anti-viral antibodies. (A-E) Data shown are means±SD of two independent experiments. Significance was calculated using a one-way ANOVA statistical test with a Dunnett's multiple (A, B and C) or Tukey comparison test (D and E). (n.s., not significant; **p<0.001; […]).

HSV = experiment: Infection of HeLa cells by HSV, flow cytometry (FIG. 2D); assay type: cell-based; conditions: MOI 0.3, 24h post infection
Experimental: as §1

ZIKV NS1 glycosylation = ZIKV NS1 glycosylation under NGI-1 (immunoblot, data not shown); assay type: cell-based; conditions: dose dependent
Description: (§2) The OST complex is known to be required for flavivirus infection through mechanisms that are poorly understood (Marceau et al., 2016; Savidis et al., 2016; Zhang et al., 2016). In mammalians, there are two OST complexes, each composed of a catalytic subunit isoform (STT3A or STT3B) associated with a set of shared subunits (RPN1, RPN2, DDOST, DAD1 and OST4) (Cherepanova et al., 2016). Their main function is to transfer a preassembled oligosaccharide to selected asparagine residues within the consensus sequence asparagine-X-serine/threonine (Cherepanova et al., 2016). […] To test whether the OST complex contributes to NS1 or NS4B N-glycosylation, we transfected HEK-293T cells with a siRNA pool targeting RPN1, DDOST, STT3A or STT3B. […] We then examined the effect of NGI-1, a recently discovered N-linked glycosylation inhibitor that directly and reversibly interacts with the OST catalytic subunits (Lopez-Sambrooks et al., 2016). […] To pinpoint the effect of hypoglycosylation on NS1 stability, we transfected HEK-293T cells with plasmids encoding FLAG-NS1 WT or mutants lacking the first (N130Q), the second (N207Q), or both N-linked glycosylation sites (N130Q/N207Q) (data not shown).

Cell proliferation = Cell proliferation over time (FIG. 3); assay type: cell-based; conditions: NGI-1 2 μM, measured over time, RLU
Experimental: FIG. 3. Cell proliferation is not affected by NGI-1. Cell proliferation is measured over time after incubation with NGI-1 (2 μM), MPA (10 μM) or respective mock control. Data shown are means±S.D. of one representative experiment of three replicates. RLU, relative light units.

[3] = tested on: DENV2 replicon (vRNA amplification); experiment: Replication kinetics of DENV2 in HeLa replicon cells (FIG. 2B); assay type: cell-based, Dengue virus; conditions: NGI-1 2 μM
Experimental: as §1
(§3) The OST complex is known to be required for flavivirus infection through mechanisms that are poorly understood (Marceau et al., 2016; Savidis et al., 2016; Zhang et al., 2016). […]

WNV = experiment: Infection of HeLa cells by WNV, flow cytometry (FIG. 2D); assay type: cell-based, West Nile virus; conditions: MOI 1, 24h post infection
Experimental: as §1

DENV2_16681 [4] = experiment: DENV infection of human primary skin fibroblasts (FIG. 2E); assay type: cell-based, Dengue virus; conditions: DENV2_16681 MOI 5, 24h post infection
Experimental: as §1

DENV2_16681 [5] = experiment: DENV infection of HeLa cells pre-incubated with drug (FIG. 2A); assay type: cell-based, Dengue virus
Experimental: as §1, §3

DENV2_16681 [6] = experiment: DENV infection of monocyte-derived dendritic cells (FIG. 2E); assay type: cell-based, Dengue virus; conditions: DENV2_16681 MOI 5, 24h post infection
Experimental: as §1

[7] = data not shown
Description: as §2

DENV NS1 glycosylation = DENV NS1 glycosylation under NGI-1 (immunoblot, data not shown); assay type: cell-based; conditions: dose dependent
Description: as §2

secreted NS1 = experiment: ELISA of secreted NS1 in supernatants (FIG. 2C); assay type: cell-based, DENV
Experimental: as §1, §3

Structure (SMILES) | DENV replication inhibition (literature) (DENV2_16681 [1]) | infection by the four DENV serotypes [2] | infection by HSV (HSV) | ZIKV NS1 glycosylation (ZIKV NS1 glycosylation) | cell proliferation / antiproliferative effects (Cell proliferation) | vRNA amplification [3] | infection by WNV (WNV) | DENV infection of human primary skin fibroblasts (DENV2_16681 [4]) | antiviral activity compared with MPA (DENV2_16681 [5]; FIGS. 2A and B, NGI-1 2 μM, MPA 10 μM in replicon cells) | DENV infection (DENV2_16681 [5]; HeLa cells, 24h pre-incubation with increased concentration of NGI-1, DENV2_16681 MOI 5, dose dependent) | DENV infection of monocyte-derived dendritic cells (DENV2_16681 [6]) | cytotoxicity [7] | DENV NS1 glycosylation (DENV NS1 glycosylation) | NS1 secretion (secreted NS1)
COc1c(C)c2c(c(O)c1C/C=C(\C)CCC(=O)O)C(=O)OC2 [MPA, mycophenolic acid] | a well-known DENV replication inhibitor |  |  |  |  |  |  |  |  |  |  |  |  | 
Cc1cnc(NC(=O)c2cc(S(=O)(=O)N(C)C)ccc2N2CCCC2)s1 [NGI-1] |  | blocked | not | strongly impaired | not affected; also recorded: without any significant cytotoxicity (data not shown) or antiproliferative effects | blocked | blocked | significantly reduced | comparable to mycophenolic acid | significantly inhibited | significantly reduced | without any significant cytotoxicity | strongly impaired | impaired
